According to ChEMBL document CHEMBL1123398, “Conformationally restricted inhibitors of angiotensin converting enzyme: synthesis and computations” (J Med Chem, 1986):

How the values were obtained:
[1] = biological target: T1, Angiotensin-converting enzyme (Homo sapiens, UniProt P12821); assay: Inhibitory concentration (isomer B) against Angiotensin I converting enzyme
[2] = biological target: T1, Angiotensin-converting enzyme; assay: Inhibitory concentration (isomer A) against Angiotensin I converting enzyme
[3] = biological target: T1, Angiotensin-converting enzyme; assay: Inhibitory concentration against Angiotensin I converting enzyme
[4] = biological target: T1, Angiotensin-converting enzyme; assay: Inhibitory concentration against Angiotensin I converting enzyme; IA is Inactive with 0% inhibition at 3.3 x 10e-4;

T1 sequence (P12821 whole entry): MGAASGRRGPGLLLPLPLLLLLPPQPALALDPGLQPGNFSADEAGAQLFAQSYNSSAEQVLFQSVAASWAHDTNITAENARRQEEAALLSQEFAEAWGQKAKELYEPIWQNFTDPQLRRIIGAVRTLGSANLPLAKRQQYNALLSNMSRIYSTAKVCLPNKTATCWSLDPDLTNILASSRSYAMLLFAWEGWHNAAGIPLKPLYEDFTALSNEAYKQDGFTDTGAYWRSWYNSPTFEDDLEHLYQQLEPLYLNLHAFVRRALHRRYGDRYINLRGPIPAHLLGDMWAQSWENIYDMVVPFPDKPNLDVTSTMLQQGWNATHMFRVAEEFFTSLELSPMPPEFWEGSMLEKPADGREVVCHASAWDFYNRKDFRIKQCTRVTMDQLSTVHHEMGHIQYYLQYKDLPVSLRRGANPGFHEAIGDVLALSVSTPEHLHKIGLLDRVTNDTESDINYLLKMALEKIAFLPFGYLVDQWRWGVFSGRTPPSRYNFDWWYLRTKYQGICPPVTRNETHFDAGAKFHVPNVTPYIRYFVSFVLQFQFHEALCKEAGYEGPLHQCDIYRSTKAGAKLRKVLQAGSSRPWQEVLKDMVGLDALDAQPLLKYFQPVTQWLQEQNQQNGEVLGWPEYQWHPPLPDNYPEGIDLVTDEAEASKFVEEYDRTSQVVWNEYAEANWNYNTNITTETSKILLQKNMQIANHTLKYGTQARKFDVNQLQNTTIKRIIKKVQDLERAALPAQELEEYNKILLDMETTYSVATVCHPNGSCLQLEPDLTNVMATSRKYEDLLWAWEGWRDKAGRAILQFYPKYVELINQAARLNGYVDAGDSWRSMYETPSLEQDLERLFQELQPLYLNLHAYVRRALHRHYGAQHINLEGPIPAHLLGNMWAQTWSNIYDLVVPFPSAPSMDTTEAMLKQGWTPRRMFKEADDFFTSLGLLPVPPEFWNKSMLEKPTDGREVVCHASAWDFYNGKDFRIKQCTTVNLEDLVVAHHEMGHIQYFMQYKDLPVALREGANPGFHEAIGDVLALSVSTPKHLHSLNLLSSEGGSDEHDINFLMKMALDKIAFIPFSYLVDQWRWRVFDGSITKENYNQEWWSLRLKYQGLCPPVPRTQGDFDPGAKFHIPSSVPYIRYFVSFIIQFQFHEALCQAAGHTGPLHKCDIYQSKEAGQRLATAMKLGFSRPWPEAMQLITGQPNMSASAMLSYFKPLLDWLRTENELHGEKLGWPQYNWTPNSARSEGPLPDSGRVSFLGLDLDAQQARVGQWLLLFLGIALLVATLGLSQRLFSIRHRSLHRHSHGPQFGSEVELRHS

Row | SMILES | IC50 [1] [µM] | IC50 [2] [µM] | IC50 [3] [µM] | IC50 [4]
1 | O=C(O)CN1CCCCC[C@H](N[C@@H](CCc2ccccc2)C(=O)O)C1=O | 0.002 |  |  | 
2 | O=C(O)CN1CCCC(NC(CCc2ccccc2)C(=O)O)C1=O (stereo unspecified) | 1.7 | 0.43 |  | 
3 | NC1CCCN(CC(=O)O)C1=O (stereo unspecified) |  |  | 1700 | 
4 | NC1CCN(CC(=O)O)C1=O (stereo unspecified) |  |  |  | Not Active
5 | NC1CCCCN(CC(=O)O)C1=O (stereo unspecified) |  |  | 480 | 
6 | O=C(O)CN1CCCCC[C@@H](N[C@H](CCc2ccccc2)C(=O)O)C1=O | 0.092 |  |  | 
7 | NC1CCCCCN(CC(=O)O)C1=O (stereo unspecified) |  |  | 440 | 
8 | O=C(O)CN1CCCCC(NC(CCc2ccccc2)C(=O)O)C1=O (stereo unspecified) | 0.019 | 0.7 |  | 
9 | O=C(O)CN1CCCCCC(NC(CCc2ccccc2)C(=O)O)C1=O (stereo unspecified) | 0.0048 | 1.7 |  | 
10 | O=C(O)CN1CCC(NC(CCc2ccccc2)C(=O)O)C1=O (stereo unspecified) | 19 | 12 |  | 
11 | O=C(O)CN1CCCCCCC(NC(CCc2ccccc2)C(=O)O)C1=O (stereo unspecified) | 0.0081 | 1.3 |  | 
